Test systems include HL-60; HT-29; IGROV-1; KM12; M14; NCI-H460; NCI-H522; OVCAR-3; RXF 393; SN12C; SR; SW-620; TK-10; A498; CAKI-1; OVCAR-5; SK-MEL-2.
What all share (assay): NCI anticancer screen, dose series, 48 h

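Each compound was tested at five concentrations against cells in 96-well plates for 48 hours. GI50 = concentration required for 50% inhibition of growth.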 Activity calls are given as the source filed them. Rule as the data show it: active = GI50 up to about 1.1 µM and inactive = higher. Some results are limits rather than exact numbers.

For `O=C1CCC2(CCC(=O)NC2=O)C(=O)N1`, the GI50 in the assay on HL-60, with HT-29, in the assay with IGROV-1, in the assay on KM12, with M14 and in the assay with NCI-H460 was > 100 µM (inactive) each time. Further, the GI50 in the assay on NCI-H522, with OVCAR-3, in the assay on RXF 393, in the assay with SN12C, in the assay on SR and in the assay on SW-620 was > 100 µM (inactive) each time. Further, the GI50 in the assay on TK-10 was > 100 µM (inactive).
With `CCOC(=O)/C([O-])=C(\C(=O)OCC)[n+]1c(C)n(C)c2ccccc21`, the GI50 in the assay with A498, in the assay with CAKI-1, with HL-60, with HT-29, in the assay on IGROV-1 and with KM12 was > 100 µM (inactive) each time. Further, the GI50 with M14, with NCI-H460, in the assay with NCI-H522, in the assay on OVCAR-3, in the assay with OVCAR-5 and in the assay on RXF 393 was > 100 µM (inactive) each time. Besides, the GI50 in the assay with SK-MEL-2, in the assay with SW-620 and with TK-10 was > 100 µM (inactive) in each case.
As to `Cc1ccc(SSCCCS(=O)O)cc1`, the GI50 in the assay with A498 was 28.1 µM (inactive); in the assay on CAKI-1 it was 38.7 µM (inactive); in the assay with HL-60 it was 0.435 µM (active); in the assay with HT-29 it was 41.6 µM (inactive); in the assay on IGROV-1, 7.93 µM (inactive); with KM12, 28.8 µM (inactive). The GI50 was 38.6 µM (inactive) in the assay on M14; 63.1 µM (inactive) in the assay with NCI-H460; 18.1 µM (inactive) in the assay on NCI-H522; 47 µM (inactive) with OVCAR-3; 74.6 µM (inactive) in the assay with OVCAR-5; 18.8 µM (inactive) in the assay on RXF 393. Besides, the GI50 is 37.1 µM (inactive) in the assay with SK-MEL-2, 21.6 µM (inactive) with SN12C, 34.2 µM (inactive) in the assay with SW-620 and 39.5 µM (inactive) in the assay with TK-10.
Regarding `NC12CC3CC(C1)CC(C(=O)O)(C3)C2`, the GI50 in the assay on A498, in the assay on CAKI-1, in the assay on HL-60, in the assay on HT-29, with IGROV-1 and in the assay with KM12 was > 100 µM (inactive) each time. Further, the GI50 in the assay with M14, in the assay with NCI-H460, with NCI-H522, in the assay with OVCAR-3, in the assay on OVCAR-5 and with SN12C was > 100 µM (inactive) throughout. Further, the GI50 with SR, in the assay on SW-620 and with TK-10 was > 100 µM (inactive) in each case.
In the case of `O=C(c1nc2ccccc2nc1O)C(O)c1ccco1` (configuration not stated), the GI50 in the assay with HL-60 was > 100 µM (inactive); in the assay on HT-29 it was > 100 µM (inactive); in the assay with IGROV-1, > 100 µM (inactive); in the assay on KM12 it was 76.4 µM (inactive); in the assay with M14 it was > 100 µM (inactive); with NCI-H460, > 100 µM (inactive). Besides, the GI50 was 25.9 µM (inactive) with NCI-H522; > 100 µM (inactive) in the assay with OVCAR-3; > 100 µM (inactive) in the assay on OVCAR-5; > 100 µM (inactive) with RXF 393; > 100 µM (inactive) in the assay on SK-MEL-2; > 100 µM (inactive) in the assay with SN12C. Further, the GI50 in the assay with SW-620 and in the assay on TK-10 was > 100 µM (inactive) each time.
In the case of `COc1cc([C@@H]2c3cc4c(cc3[C@@H](OC(=O)c3ccc(N)cc3)C3COC(=O)[C@@H]32)OCO4)cc(OC)c1O` (some centres not stated), the GI50 in the assay with A498 was 5.82 µM (inactive); with CAKI-1, 8.47 µM (inactive); in the assay with HL-60, 3.1 µM (inactive); in the assay with HT-29, 3.21 µM (inactive); in the assay on IGROV-1, 2.8 µM (inactive); with KM12 it was 11.9 µM (inactive). In addition, the GI50 is 16.8 µM (inactive) in the assay on M14; 3.73 µM (inactive) with NCI-H460; 2.07 µM (inactive) in the assay on NCI-H522; 12.9 µM (inactive) with OVCAR-3; 41.5 µM (inactive) in the assay with OVCAR-5; 2.92 µM (inactive) in the assay on RXF 393. Also, the GI50 was 6.32 µM (inactive) in the assay on SK-MEL-2, 4.21 µM (inactive) with SN12C, 5.71 µM (inactive) in the assay on SW-620 and 17.6 µM (inactive) in the assay with TK-10.
Regarding `O=c1[nH]c2c3ccccc3ccc2c2cc3c(cc12)OCO3`, the GI50 in the assay with CAKI-1 was 95.9 µM (inactive); with HT-29, > 100 µM (inactive); in the assay with IGROV-1, > 100 µM (inactive); in the assay with KM12 it was 75.5 µM (inactive); in the assay with M14 it was > 100 µM (inactive); in the assay with NCI-H460, > 100 µM (inactive). In addition, the GI50 with NCI-H522 was 42.5 µM (inactive); in the assay on OVCAR-3 it was > 100 µM (inactive); in the assay with OVCAR-5, > 100 µM (inactive); with RXF 393, 28.8 µM (inactive); in the assay on SK-MEL-2, > 100 µM (inactive); in the assay with SN12C, > 100 µM (inactive). In addition, the GI50 with SW-620 is 84.7 µM (inactive); in the assay on TK-10, > 100 µM (inactive).
`Cc1nc(-n2nc(-c3ccccc3)cc2-c2ccccc2)sc1C(=O)/C=C/c1ccc(/C=C/C(=O)c2sc(-n3nc(-c4ccccc4)cc3-c3ccccc3)nc2C)cc1`: the GI50 is 22.2 µM (inactive) with CAKI-1; 32.9 µM (inactive) in the assay with HL-60; 21.6 µM (inactive) in the assay with HT-29; 15.2 µM (inactive) in the assay on IGROV-1; 18.8 µM (inactive) in the assay on KM12; 20 µM (inactive) in the assay on M14. For the same molecule, the GI50 was 29 µM (inactive) in the assay with NCI-H460; 17.8 µM (inactive) in the assay on NCI-H522; 20.8 µM (inactive) in the assay with OVCAR-3; 25.5 µM (inactive) in the assay on OVCAR-5; 22.8 µM (inactive) with RXF 393; 22.1 µM (inactive) with SK-MEL-2. Moreover, the GI50 in the assay with SN12C was 19.6 µM (inactive); with SR, 27.2 µM (inactive); in the assay with SW-620 it was 34.8 µM (inactive); in the assay with TK-10 it was 34.1 µM (inactive).
On to `O=C1CC(c2c[nH]c3ccccc23)C(=O)N1c1ccccc1` (configuration not stated), for which the GI50 with A498, in the assay with CAKI-1, in the assay with HL-60, in the assay with HT-29, with IGROV-1 and in the assay with KM12 was > 100 µM (inactive) in each case. Also, the GI50 in the assay with M14, with NCI-H460, in the assay with OVCAR-3, with OVCAR-5, with RXF 393 and with SK-MEL-2 was > 100 µM (inactive) each time. For the same molecule, the GI50 in the assay with SW-620 and with TK-10 was > 100 µM (inactive) each time.
Regarding `C=CCN1C2Cc3cc(OC)c(OC)cc3C1Cc1cc(OC)c(OC)cc12`, the GI50 in the assay on A498 is > 100 µM (inactive); in the assay on CAKI-1, > 100 µM (inactive); in the assay on HT-29, 69 µM (inactive); in the assay on KM12, > 100 µM (inactive); in the assay on M14, > 100 µM (inactive); in the assay on NCI-H460, > 100 µM (inactive). The GI50 in the assay on NCI-H522, in the assay on OVCAR-3, in the assay with OVCAR-5, with SK-MEL-2, in the assay with SN12C and in the assay on SW-620 was > 100 µM (inactive) in each case. In addition, the GI50 in the assay with TK-10 is > 100 µM (inactive).
Turning to `Cn1cnc([N+](=O)[O-])c1Sc1nnc(-c2ccc(Cl)cc2)n1C`, the GI50 is 27.8 µM (inactive) with A498; 15.9 µM (inactive) with CAKI-1; 15 µM (inactive) in the assay on HT-29; 16.7 µM (inactive) in the assay with IGROV-1; 20.1 µM (inactive) in the assay on KM12; 13.6 µM (inactive) with M14. Further, the GI50 in the assay with NCI-H460 was 20.7 µM (inactive); with NCI-H522, 3.17 µM (inactive); in the assay on OVCAR-3, 13.9 µM (inactive); in the assay on OVCAR-5 it was 20.5 µM (inactive); in the assay with RXF 393, 3.15 µM (inactive); in the assay on SK-MEL-2, 15.5 µM (inactive). Further, the GI50 in the assay on SN12C was 14.7 µM (inactive); in the assay on SR, 7.41 µM (inactive); with SW-620 it was 11.3 µM (inactive); with TK-10, 17.7 µM (inactive).
As for `N#CCCN(c1ccc(-c2nnc(NC(=O)CNNC(=O)CC(=O)Nc3ccccc3)s2)cc1)S(=O)(=O)c1ccccc1`, the GI50 was > 100 µM (inactive) in the assay on A498; 78 µM (inactive) with CAKI-1; 39.4 µM (inactive) with HL-60; > 100 µM (inactive) in the assay on HT-29; > 100 µM (inactive) in the assay on IGROV-1; > 100 µM (inactive) in the assay on KM12. For the same molecule, the GI50 in the assay on NCI-H460 is > 100 µM (inactive); with NCI-H522 it was 42.1 µM (inactive); in the assay on OVCAR-3, 52.6 µM (inactive); in the assay on OVCAR-5 it was > 100 µM (inactive); with SK-MEL-2, > 100 µM (inactive); in the assay on SN12C, > 100 µM (inactive). Also, the GI50 with SW-620 and with TK-10 was > 100 µM (inactive) in each case.
`CCN1C(=O)C(N=[N+]=[N-])(c2ccccc2)C(=O)c2ccccc21` (configuration not stated): the GI50 was > 100 µM (inactive) in the assay on CAKI-1; 21.6 µM (inactive) with HL-60; > 100 µM (inactive) in the assay with HT-29; > 100 µM (inactive) in the assay on IGROV-1; > 100 µM (inactive) with KM12; 41.9 µM (inactive) in the assay on M14. Also, the GI50 was 94.8 µM (inactive) in the assay on NCI-H460; > 100 µM (inactive) with NCI-H522; 56.8 µM (inactive) with OVCAR-3; > 100 µM (inactive) in the assay on OVCAR-5; 99.1 µM (inactive) in the assay on RXF 393; > 100 µM (inactive) in the assay with SK-MEL-2. Besides, the GI50 in the assay with SN12C was > 100 µM (inactive); in the assay with SR, 36.3 µM (inactive); with SW-620, > 100 µM (inactive); in the assay on TK-10, > 100 µM (inactive).

The record behind these values is ChEMBL document CHEMBL1201862, “PubChem BioAssay data set” (2004).
